Activity calls are given as the source filed them.
Legend:
Genome polyprotein = Genome polyprotein (dengue virus type 2, UniProt P29990); assay: Dengue-2 NS5 methyltransferase inhibitors, primary screen, biochemical, confirmation dose response (AID 588689); format: functional
[1] = target: T1, Rac GTPase-activating protein 1 (Homo sapiens, UniProt Q9H0H5); assay: MgcRacGAP GTPase-activating activity inhibitors, confirmation, biochemical, ADP Hunter fluorescence, primary and confirmatory (AID 624330); format: functional
T1 sequence (Q9H0H5 whole entry): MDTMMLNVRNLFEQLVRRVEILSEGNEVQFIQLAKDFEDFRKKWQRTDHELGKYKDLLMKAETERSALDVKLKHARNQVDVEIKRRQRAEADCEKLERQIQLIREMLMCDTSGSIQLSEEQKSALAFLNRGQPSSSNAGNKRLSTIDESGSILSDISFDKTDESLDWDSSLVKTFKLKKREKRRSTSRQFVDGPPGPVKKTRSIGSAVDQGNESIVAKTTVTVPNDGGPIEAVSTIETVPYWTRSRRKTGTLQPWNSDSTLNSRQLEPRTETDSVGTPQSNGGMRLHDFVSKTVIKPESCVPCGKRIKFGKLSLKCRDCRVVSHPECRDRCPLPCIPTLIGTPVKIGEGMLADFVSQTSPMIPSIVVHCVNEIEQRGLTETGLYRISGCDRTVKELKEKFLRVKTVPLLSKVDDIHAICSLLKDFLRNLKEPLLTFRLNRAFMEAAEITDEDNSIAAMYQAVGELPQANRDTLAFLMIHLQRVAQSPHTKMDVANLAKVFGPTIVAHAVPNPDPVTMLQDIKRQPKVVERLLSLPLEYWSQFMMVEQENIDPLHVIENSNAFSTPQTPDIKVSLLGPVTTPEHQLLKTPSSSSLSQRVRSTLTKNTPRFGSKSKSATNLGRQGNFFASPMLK

[2] = target: T2, RNA-binding protein pos-1 (Caenorhabditis elegans, UniProt G5EF15); assay: inhibitors of POS-1/mex-3 RNA binding, dose response, biochemical, fluorescence polarization (AID 1964);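 note: purified POS-1 fused to maltose binding protein made in E. coli; potency of compounds blocking POS-1 binding to fluorescent RNA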
T2 sequence (G5EF15 whole entry): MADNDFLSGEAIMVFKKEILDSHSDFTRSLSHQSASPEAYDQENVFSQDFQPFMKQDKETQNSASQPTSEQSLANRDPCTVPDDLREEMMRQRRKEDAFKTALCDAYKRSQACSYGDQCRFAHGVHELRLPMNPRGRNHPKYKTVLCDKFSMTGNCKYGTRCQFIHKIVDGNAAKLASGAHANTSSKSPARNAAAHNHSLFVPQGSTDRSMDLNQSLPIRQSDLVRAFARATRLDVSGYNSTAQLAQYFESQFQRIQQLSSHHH

[3] = target: T3, Zinc finger protein mex-5 (Caenorhabditis elegans, UniProt Q9XUB2); assay: MEX-5/TCR-2 RNA interaction inhibitors, dose response, biochemical, C. elegans, fluorescence polarization (AID 1960)
T3 sequence (Q9XUB2 whole entry): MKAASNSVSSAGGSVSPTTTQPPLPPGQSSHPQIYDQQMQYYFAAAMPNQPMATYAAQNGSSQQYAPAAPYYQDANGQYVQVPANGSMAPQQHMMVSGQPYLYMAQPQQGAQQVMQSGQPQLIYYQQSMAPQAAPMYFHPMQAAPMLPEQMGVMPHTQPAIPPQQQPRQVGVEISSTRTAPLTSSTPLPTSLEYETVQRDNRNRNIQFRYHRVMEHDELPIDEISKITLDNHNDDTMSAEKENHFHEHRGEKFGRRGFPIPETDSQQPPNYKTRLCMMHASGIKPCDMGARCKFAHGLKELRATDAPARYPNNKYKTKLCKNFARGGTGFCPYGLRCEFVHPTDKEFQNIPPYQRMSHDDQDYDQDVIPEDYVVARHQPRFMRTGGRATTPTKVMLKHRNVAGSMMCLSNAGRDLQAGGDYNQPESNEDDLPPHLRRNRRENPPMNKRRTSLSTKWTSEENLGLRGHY

[4] = target: T4, Microphthalmia-associated transcription factor (Homo sapiens, UniProt O75030); assay: TRPM1 promoter luciferase signal decrease, dose response, MITF inhibitor project, cell-based, SK-MEL-5, cherry-picked, set 3 (AID 493073); format: functional
T4 sequence (O75030 whole entry): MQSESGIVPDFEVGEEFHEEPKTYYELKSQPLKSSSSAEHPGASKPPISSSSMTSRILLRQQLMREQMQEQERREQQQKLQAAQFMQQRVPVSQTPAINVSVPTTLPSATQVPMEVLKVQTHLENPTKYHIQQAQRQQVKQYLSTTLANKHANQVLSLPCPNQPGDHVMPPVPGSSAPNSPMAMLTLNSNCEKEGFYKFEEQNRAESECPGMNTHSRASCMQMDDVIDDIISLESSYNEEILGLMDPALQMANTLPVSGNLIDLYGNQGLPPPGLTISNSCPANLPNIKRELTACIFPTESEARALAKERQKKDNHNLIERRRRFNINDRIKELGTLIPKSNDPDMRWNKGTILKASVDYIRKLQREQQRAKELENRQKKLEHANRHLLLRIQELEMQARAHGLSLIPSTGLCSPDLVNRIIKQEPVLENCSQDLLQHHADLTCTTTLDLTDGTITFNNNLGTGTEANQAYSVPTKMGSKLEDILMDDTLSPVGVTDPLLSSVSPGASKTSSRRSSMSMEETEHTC

[5] = Luminescence Cell-Based Dose Retest to Confirm Inhibitors of Cancer Stem Cells. [Related pubchem assays (depositor defined):AID2717, AID2721]; format: functional; conditions: Homo sapiens
[6] = target: T5, High affinity choline transporter 1 (Homo sapiens, UniProt Q9GZV3); assay: CHT inhibitors, dose response, cell-based, 5-point CRC, membrane potential dye (AID 504840); format: functional
T5 sequence (Q9GZV3 whole entry): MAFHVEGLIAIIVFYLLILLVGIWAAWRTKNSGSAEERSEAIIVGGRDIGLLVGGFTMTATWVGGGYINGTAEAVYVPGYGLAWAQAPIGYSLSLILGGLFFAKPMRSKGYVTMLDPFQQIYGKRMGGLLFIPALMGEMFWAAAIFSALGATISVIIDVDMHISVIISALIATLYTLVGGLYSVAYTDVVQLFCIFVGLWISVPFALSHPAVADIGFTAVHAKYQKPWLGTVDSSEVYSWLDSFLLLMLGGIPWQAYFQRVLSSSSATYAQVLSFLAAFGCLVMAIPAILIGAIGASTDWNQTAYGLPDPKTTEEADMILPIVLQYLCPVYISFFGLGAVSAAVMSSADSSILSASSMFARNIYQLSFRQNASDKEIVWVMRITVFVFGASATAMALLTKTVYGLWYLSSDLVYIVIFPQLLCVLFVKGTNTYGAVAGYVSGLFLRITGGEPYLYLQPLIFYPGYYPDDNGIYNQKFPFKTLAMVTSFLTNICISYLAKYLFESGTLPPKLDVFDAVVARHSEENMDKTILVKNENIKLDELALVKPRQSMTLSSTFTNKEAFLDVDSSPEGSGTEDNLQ

[7] = target: T6, Polyadenylate-binding protein 1 (Homo sapiens, UniProt P11940); assay: PABP1 MLLE–PAM2 interaction inhibitors, dose response, miRNA deadenylation inhibitor project, biochemical, fluorescence polarization, Cy5-PAM2 peptide, secondary (AID 602260); format: functional; conditions: read-out: IC50_Mean
T6 sequence (P11940 whole entry): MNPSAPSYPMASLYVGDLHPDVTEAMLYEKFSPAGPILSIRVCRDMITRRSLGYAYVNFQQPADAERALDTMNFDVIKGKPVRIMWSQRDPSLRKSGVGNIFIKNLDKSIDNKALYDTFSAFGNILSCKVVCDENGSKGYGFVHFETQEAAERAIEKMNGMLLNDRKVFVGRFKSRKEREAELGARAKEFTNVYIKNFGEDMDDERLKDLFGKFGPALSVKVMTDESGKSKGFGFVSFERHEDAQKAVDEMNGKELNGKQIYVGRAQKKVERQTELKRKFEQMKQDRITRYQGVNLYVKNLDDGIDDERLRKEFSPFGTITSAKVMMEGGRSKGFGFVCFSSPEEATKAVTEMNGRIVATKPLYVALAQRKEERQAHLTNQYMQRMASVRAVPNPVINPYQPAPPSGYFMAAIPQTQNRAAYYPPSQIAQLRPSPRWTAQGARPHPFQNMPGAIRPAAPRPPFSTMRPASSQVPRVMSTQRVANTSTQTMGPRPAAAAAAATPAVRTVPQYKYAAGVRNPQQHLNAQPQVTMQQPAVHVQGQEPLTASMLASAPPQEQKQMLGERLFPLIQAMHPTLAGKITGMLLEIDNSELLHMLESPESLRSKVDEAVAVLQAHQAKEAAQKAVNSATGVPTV

Aminopeptidase N = target: T7, Aminopeptidase N (Plasmodium falciparum FcB1/Columbia, UniProt O96935); assay: P. falciparum M1AAP inhibitors, biochemical, fluorogenic H-Leu-NHMec substrate, 1536-well (AID 1445); design: species or system Plasmodium falciparum 3D7, 3D7
T7 sequence (O96935 whole entry): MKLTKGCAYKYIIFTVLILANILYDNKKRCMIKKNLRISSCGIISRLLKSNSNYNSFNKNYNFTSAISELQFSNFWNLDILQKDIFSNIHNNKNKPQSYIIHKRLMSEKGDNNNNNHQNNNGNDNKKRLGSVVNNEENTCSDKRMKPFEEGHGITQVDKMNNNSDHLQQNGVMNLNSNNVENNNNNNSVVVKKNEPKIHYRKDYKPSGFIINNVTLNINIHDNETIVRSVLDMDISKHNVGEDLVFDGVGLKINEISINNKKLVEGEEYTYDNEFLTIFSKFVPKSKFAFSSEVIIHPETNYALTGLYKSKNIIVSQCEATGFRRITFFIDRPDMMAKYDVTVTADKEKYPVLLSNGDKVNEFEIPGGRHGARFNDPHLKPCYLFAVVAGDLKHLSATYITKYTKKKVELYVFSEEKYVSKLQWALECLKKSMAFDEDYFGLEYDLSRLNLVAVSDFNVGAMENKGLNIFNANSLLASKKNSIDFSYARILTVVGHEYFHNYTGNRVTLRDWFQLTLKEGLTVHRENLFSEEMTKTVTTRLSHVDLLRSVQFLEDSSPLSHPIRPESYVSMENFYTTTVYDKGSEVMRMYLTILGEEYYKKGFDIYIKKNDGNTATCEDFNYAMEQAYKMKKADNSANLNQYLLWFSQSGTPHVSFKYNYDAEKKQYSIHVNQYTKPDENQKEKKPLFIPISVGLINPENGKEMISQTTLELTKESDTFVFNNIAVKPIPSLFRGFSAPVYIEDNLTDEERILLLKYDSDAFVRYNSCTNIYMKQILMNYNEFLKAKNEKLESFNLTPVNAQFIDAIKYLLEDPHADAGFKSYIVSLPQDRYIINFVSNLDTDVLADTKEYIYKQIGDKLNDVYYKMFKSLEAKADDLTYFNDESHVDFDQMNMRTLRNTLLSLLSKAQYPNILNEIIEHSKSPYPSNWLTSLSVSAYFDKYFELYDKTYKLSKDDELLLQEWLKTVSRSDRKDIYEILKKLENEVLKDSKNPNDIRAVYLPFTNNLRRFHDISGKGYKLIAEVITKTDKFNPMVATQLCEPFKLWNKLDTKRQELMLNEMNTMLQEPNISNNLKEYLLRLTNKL

[8] = target: T6, Polyadenylate-binding protein 1; assay: PABP1 MLLE–PAM2 binding inhibitor potency, dose response, biochemical, fluorescence polarization, FITC-PAM2 peptide (AID 602259); format: functional; conditions: read-out: IC50_Mean
[9] = cytotoxicity in MIN6 insulinoma cells, dose response, cytotoxicity control, cell-based, mouse insulinoma (AID 2122); format: functional;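 note: confirmatory high-throughput counterscreen run to flag cytotoxic compounds; mouse MIN-6 beta cells carrying an insulin promoter eGFP reporter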
[10] = insulin promoter down-regulators in MIN6 cells, imaging, high-content screening, mouse beta cells (AID 1628); format: functional

Sequence of Genome polyprotein (P29990 2492-3391 limits assumed): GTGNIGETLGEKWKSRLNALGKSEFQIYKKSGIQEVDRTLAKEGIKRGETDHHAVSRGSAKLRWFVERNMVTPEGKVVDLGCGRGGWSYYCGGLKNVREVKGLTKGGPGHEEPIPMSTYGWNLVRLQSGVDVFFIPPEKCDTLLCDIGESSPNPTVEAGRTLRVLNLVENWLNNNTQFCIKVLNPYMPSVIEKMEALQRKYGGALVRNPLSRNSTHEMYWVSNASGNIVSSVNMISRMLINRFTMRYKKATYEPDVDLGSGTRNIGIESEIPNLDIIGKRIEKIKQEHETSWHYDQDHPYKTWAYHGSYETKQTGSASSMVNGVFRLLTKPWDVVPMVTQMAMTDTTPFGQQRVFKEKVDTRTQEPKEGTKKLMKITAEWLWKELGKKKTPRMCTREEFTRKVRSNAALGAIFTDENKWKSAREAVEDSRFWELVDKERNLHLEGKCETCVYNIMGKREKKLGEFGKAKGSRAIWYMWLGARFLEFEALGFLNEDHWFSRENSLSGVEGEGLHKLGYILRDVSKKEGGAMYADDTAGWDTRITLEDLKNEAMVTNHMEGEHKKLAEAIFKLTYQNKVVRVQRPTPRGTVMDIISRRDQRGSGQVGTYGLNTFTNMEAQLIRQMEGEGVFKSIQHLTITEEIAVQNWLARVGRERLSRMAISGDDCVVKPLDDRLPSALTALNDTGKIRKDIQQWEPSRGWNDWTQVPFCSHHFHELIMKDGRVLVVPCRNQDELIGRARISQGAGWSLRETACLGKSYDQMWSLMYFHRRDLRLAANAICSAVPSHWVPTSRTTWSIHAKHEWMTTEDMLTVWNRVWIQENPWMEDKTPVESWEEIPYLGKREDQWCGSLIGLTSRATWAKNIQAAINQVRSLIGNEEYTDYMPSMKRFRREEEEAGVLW

Structure (SMILES): CSc1nc(S)c2[nH]c(S)nc2n1
- IC50 (Genome polyprotein): 30.6 µM (active)
- IC50 [1]: 32.7 µM (active)
- EC50 [2]: 5.15 µM (active)
- EC50 [3]: 4.78 µM (active)

Structure (SMILES): Cc1ccc(N2C(=O)NC(=O)/C(=C/C=C/c3ccco3)C2=O)cc1
- AC50 [4]: 5.97 µM (active)
- AC50 [5]: 1.65 µM (active)

Structure (SMILES): CCc1ccc(OC(C)C(=O)Nc2ccc(S(=O)(=O)Nc3nccs3)cc2)cc1 (stereo not given)
- IC50 [6]: 13.8 µM (active)

Structure (SMILES): CCOC(=O)C1=C(C)N=c2s/c(=C/c3cccc([N+](=O)[O-])c3O)c(=O)n2C1c1cc(OC)c(OC)c(OC)c1 (stereo not given)
- IC50 [6]: 13.2 µM (active)

Structure (SMILES): COc1cc(/C=C2/SC(NS(=O)(=O)c3ccccc3)=NC2=O)c([N+](=O)[O-])cc1OC
- IC50 (Genome polyprotein): 45.8 µM (active)
- IC50 [7]: > 66 µM (inactive)
- IC50 (Aminopeptidase N): 24.1 µM (active)
- IC50 [8]: > 66 µM (inactive)

Structure (SMILES): O=C(CCl)Nc1cccc(S(=O)(=O)NC2=NCCCCC2)c1
- AC50 [4]: 7.85 µM (active)

Structure (SMILES): CC1(C)CC(N2CCCC2)=CC(=[N+]2CCCCC2)C1
- IC50 [9]: < 0.25 µM (active)
- IC50 [10]: < 0.25 µM (active)

Reference: ChEMBL document CHEMBL1201862, “PubChem BioAssay data set” (2004)
